Reference: patent US20230175069A1, “COMPOSITIONS AND METHODS FOR DETECTING GENE FUSIONS OF ESR1 AND CCDC170 FOR DETERMINING INCREASED RESISTANCE TO ENDOCRINE THERAPY AND FOR CANCER TREATMENT” (UNIVERSITY OF PITTSBURGH-OF THE COMMONWEAL TH SYSTEM OF …, priority 2020, published 2023)

How the values were obtained:
[1] = tested on: HER2; conditions: HCC1428 cells
[2] = tested on: HCC1428 cells; assay: Clonogenic assay in HCC1428 cells (endogenous E2-E10 ESR1-CCDC170 fusion); format: cell-based, human; conditions: for cell viability, inhibitor in combination with tamoxifen or fulvestrant compared to tamoxifen or fulvestrant alone / therapeutic effect when combined with fulvestrant, comparison / therapeutic activity in combination with tamoxifen or fulvestrant, comparison between inhibitors: lapatinib 2 µM; for cell viability, inhibitor in combination with tamoxifen or fulvestrant compared to tamoxifen or fulvestrant alone: dasatinib 0.05 µM, BEZ235 8 nM; for cell viability, inhibitor in combination with tamoxifen or fulvestrant compared to tamoxifen or fulvestrant alone / therapeutic activity in combination with tamoxifen or fulvestrant, comparison between inhibitors: AZD8931 1 µM; for therapeutic effect when combined with fulvestrant, comparison: dasatinib 0.05 µM plus fulvestrant; for therapeutic activity in combination with tamoxifen or fulvestrant, comparison between inhibitors: dasatinib 0.05 µM vs BEZ235 8 nM
[3] = tested on: ZR-75-1 cells; assay: Clonogenic assay in ZR-75-1 cells (E2-E6 ESR1-CCDC170 fusion); format: cell-based, human; conditions: for cell viability, concomitant inhibitor compared to endocrine treatment alone: lapatinib 2 µM or dasatinib 0.05 µM with tamoxifen or fulvestrant
Experimental: A) Sensitivity of ZR-75-1 cells to tamoxifen in combination with HER2, SRC, or HER2+SRC inhibitors as measured by clonogenic assays. ZR-75-1 cells were treated with different dosages of 4-OH tamoxifen (µM), or 4-OH tamoxifen plus lapatinib (2 µM), dasatinib (0.05 µM), or lapatinib (2 µM) + dasatinib (0.05 µM). Data were normalized against vehicle treatment alone (as 100%). […] Data were normalized against vehicle treatment alone (as 100%).
Left panel, the representative plate images of clonogenic assays. Right panel, the relative clonogenic viabilities normalized to tamoxifen monotreatment (Means ± SD. of triplicates).
The clonogenic viabilities following the respective treatments were assessed by clonogenic assays.

[4] = tested on: MDA-MB-415; assay: Clonogenic assay in fusion-negative MDA-MB-415 cells; format: cell-based; conditions: Homo sapiens; MDA-MB-415 (fusion-negative); titrated lapatinib in combination with 0.5 µM tamoxifen, 10 to 13 days; read-out: IC50 (clonogenic viability)
[5] = tested on: CAMA-1; assay: Clonogenic assay in fusion-negative CAMA-1 cells; format: cell-based; conditions: Homo sapiens; CAMA-1 (fusion-negative); titrated lapatinib in combination with 0.5 µM tamoxifen, 10 to 13 days; read-out: IC50 (clonogenic viability)

Row | Structure (SMILES) | cell viability, inhibitor in combination with tamoxifen or fulvestrant compared to tamoxifen or fulvestrant alone [2] | therapeutic effect when combined with fulvestrant, comparison [2] | therapeutic activity in combination with tamoxifen or fulvestrant, comparison between inhibitors [2] | cell viability, concomitant inhibitor compared to endocrine treatment alone [3] | other results
1 | CC/C(=C(\c1ccccc1)c1ccc(OCCN(C)C)cc1)c1ccccc1 [tamoxifen] |  |  |  |  | HER2 protein level (Western blot) [1]: upregulated; cell growth (clonogenic assay), endocrine agent alone ([2]; Tam 0.5 µM or Ful 0.1 µM, 72 hours): reduced cell growth efficiently; response of cells to endocrine treatment (clonogenic assay) ([3]; increasing doses of tamoxifen or fulvestrant): responded
2 | Cn1c(=O)n(-c2ccc(C(C)(C)C#N)cc2)c2c3cc(-c4cnc5ccccc5c4)ccc3ncc21 [BEZ235] | significantly inhibited cell viability |  |  |  | 
3 | CS(=O)(=O)CCNCc1ccc(-c2ccc3ncnc(Nc4ccc(OCc5cccc(F)c5)c(Cl)c4)c3c2)o1 [lapatinib] | significantly inhibited cell viability | comparable therapeutic effects | better therapeutic activities than BEZ235 or AZD8931 | further decreased cell viability | IC50 [4]: 4000 nM; IC50 [5]: 6500 nM; IC50 ([2]; Homo sapiens, HCC1428 (E2-E10 variant), titrated lapatinib in combination with 0.5 µM tamoxifen, 10 to 13 days, normalized to tamoxifen monotreatment, read-out: IC50 (clonogenic viability)): 150 nM; IC50 ([3]; Homo sapiens, ZR-75-1 (E2-E6 variant), titrated lapatinib in combination with 0.5 µM tamoxifen, 10 to 13 days, normalized to tamoxifen monotreatment, read-out: IC50 (clonogenic viability)): 600 nM
4 | CNC(=O)CN1CCC(Oc2cc3c(Nc4cccc(Cl)c4F)ncnc3cc2OC)CC1 [AZD8931] | significantly inhibited cell viability |  |  |  | 
5 | Cc1nc(Nc2ncc(C(=O)Nc3c(C)cccc3Cl)s2)cc(N2CCN(CCO)CC2)n1 [dasatinib] | significantly inhibited cell viability | comparable therapeutic effects | better therapeutic activities than BEZ235 or AZD8931 | did not show any significant therapeutic benefit | activity in the presence of tamoxifen, comparison ([2]; dasatinib 0.05 µM vs lapatinib 2 µM plus 4-OH tamoxifen): better activity than lapatinib
